Assays:
rat orexin 1 receptor = rat orexin 1 receptor (Rattus norvegicus, UniProt P56718); experiment: Rat orexin 1 receptor radioligand binding; settings: HEK293 cells stably expressing rat orexin 1 receptor; apparent Ki; read-out: rOX1 Ki
How it was run: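 Homogenized cell suspensions competed against 4 nM final of a tritiated oxadiazolyl-pyrrolidinyl thiazole methanone radioligand (35.3 Ci/mmol) in PBS, with DMSO ≤0.1%. Nonspecific binding defined with 10 μM almorexant; after washing and drying, bound radioactivity counted by scintillation.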

human orexin 1 receptor = human orexin 1 receptor (Homo sapiens, UniProt O43613); experiment: Human orexin 1 receptor radioligand binding; settings: CHO cells stably expressing human orexin 1 receptor; apparent Ki; read-out: hOX1 Ki
Protocol: The in vitro affinity of the compounds of the invention for the rat/human orexin 1 and human orexin 2 receptors was determined by competitive radioligand binding using [^3H](1-(5-(2-fluoro-phenyl)-2-methyl-thiazol-4-yl)-1-((S)-2-(5-phenyl-(1,3,4)oxadiazol-2-ylmethyl)-pyrrolidin-1-yl)-methanone)(Langmead et al., 2004) and [^3H]EMPA (n-ethyl-2[96-methoxy-pyridin-3-yl)-(toluene-2-sulfonyl)-amino]-N-pyridin-3-ylmethyl acetamide), respectively (Langmead et al., 2004, British Journal of Pharmacology 141:340-346; Malherbe et al., 2004, British Journal of Pharmacology 156:1326-41).
Human Embryonic Kidney 293 cells (HEK293) stably expressing rat orexin 1 receptor (Genebank accession number NM_001525) or Chinese ovary cells (CHO) stably expressing human orexin 1 receptor (Genebank accession number NM_001526) were grown to confluency in DMEM (Hyclone, cat #SH30022), 10% FBS, 1× Pen/Strep, 1× sodium pyruvate, 10 mM HEPES, 600 µg/mL G418 and DMEM/F12 (Gibco, Cat #11039), 10% FBS, 1× Pen/Strep, 600 µg/mL G418 media, respectively on 150 cm^2 tissue culture plates, washed with 5 mM EDTA in PBS (HyClone Dulbecco's Phoshpate Buffered Saline 1× with Calcium and Magnesium, Cat #SH30264.01, hereafter referred to simply as PBS) and scraped into 50 ml tubes. After centrifugation (2K×G, 5 min at 4° C.), the supernatant was aspirated and the pellets frozen and stored at −80° C. Cells were resuspended in PBS in the presence of 1 tablet of protease inhibitor cocktail (Roche, Cat. #11836145001) per 50 mL. Each cell pellet from a 15 cm plate was resuspended in 10 mL, stored on ice, and homogenized for 45 sec prior to addition to the reactions. Competition binding experiments in 96 well polypropylene plates were performed using [^3H]-(1-(5-(2-fluoro-phenyl)-2-methyl-thiazol-4-yl)-1-((S)-2-(5-phenyl-(1,3,4)oxadiazol-2-ylmethyl)-pyrrolidin-1-yl)-methanone) (Moraveck Corporation, specific activity=35.3 Ci/mmol), diluted to a 10 nM concentration in PBS (4 nM final). […] The final concentration of DMSO in the reactions is equal to or less than 0.1%. Total and nonspecific binding was determined in the absence and presence of 10 μM almorexant. The total volume of each reaction is 200 μL (20 μL of diluted compounds, 80 μL of [3H]-(1-(5-(2-fluoro-phenyl)-2-methyl-thiazol-4-yl)-1-((S)-2-(5-phenyl-(1,3,4)oxadiazol-2-ylmethyl)-pyrrolidin-1-yl)-methanone) diluted in PBS and 100 μL of the cell suspension). Reactions were run for 60 min at room temperature and terminated by filtration through GF/C filter plates (PerkinElmer, Cat. #6005174) presoaked in 0.3% polyethylenimine using the cell harvester (PerkinElmer Filtermate). The plates were washed 3 times by aspirating 30 ml PBS through the plates. Plates were dried in 55° C. oven for 60 min, scintillation fluid was added, and the radioactivity was counted on a Topcount (Packard).

human orexin 2 receptor = human orexin 2 receptor (Homo sapiens (Human), UniProt O43614); experiment: Human orexin 2 receptor radioligand binding ([3H]-EMPA); settings: HEK293 stably expressing human orexin 2 receptor; [3H]-EMPA; apparent Ki; read-out: hOX2 Ki
human orexin 2 receptor, sequence (O43614 whole entry): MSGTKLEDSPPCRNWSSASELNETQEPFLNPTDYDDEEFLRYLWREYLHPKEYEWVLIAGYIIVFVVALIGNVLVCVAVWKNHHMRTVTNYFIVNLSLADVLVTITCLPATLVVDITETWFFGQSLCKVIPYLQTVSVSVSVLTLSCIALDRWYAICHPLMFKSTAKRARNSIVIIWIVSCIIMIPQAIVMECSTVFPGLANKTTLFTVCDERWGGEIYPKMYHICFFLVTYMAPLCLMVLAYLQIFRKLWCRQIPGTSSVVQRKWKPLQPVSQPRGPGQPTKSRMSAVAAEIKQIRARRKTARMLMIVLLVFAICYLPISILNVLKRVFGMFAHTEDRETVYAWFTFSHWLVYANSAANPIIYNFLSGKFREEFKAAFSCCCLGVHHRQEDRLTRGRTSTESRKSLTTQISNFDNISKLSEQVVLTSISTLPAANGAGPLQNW
How it was run: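 Competition binding with 2 nM final [3H]-EMPA in PBS against homogenized whole-cell suspension; DMSO ≤0.1%. Nonspecific binding defined with […] almorexant. Plates washed with PBS, dried, and bound radioactivity counted by scintillation.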

| Compound | Ki (rat orexin 1 receptor) [nM] | Ki (human orexin 1 receptor) [nM] | Ki (human orexin 2 receptor) [nM] |
| --- | --- | --- | --- |
| Cc1ccc(-c2ncccn2)c(C(=O)N2CCC[C@@H](Nc3ncc(C(F)(F)F)cn3)[C@@H]2C)n1 [Example 78, ((2S,3R)-2-methyl-3-((5-(trifluoromethyl)pyrimidin-2-yl)amino)piperidin-1-yl)(6-methyl-3-(pyrimidin-2-yl)pyridin-2-yl)methanone] | 30 | 57 | 436 |
| Cc1ccc(C(=O)N2CCC[C@@H](Nc3cnc(C(F)(F)F)cn3)[C@@H]2C)c(-n2nccn2)c1 [Example 79, (4-methyl-2-(2H-1,2,3-triazol-2-yl)phenyl)((2S,3R)-2-methyl-3-((5-(trifluoromethyl)pyrazin-2-yl)amino)piperidin-1-yl)methanone] | 8 | 7 | 1300 |
| Cc1cnc(C(=O)N2CCC[C@@H](Nc3ccc(Br)cn3)[C@@H]2C)c(-c2ncco2)c1 [Example 80, ((2S,3R)-3-((5-bromopyridin-2-yl)amino)-2-methylpiperidin-1-yl)(5-methyl-3-(oxazol-2-yl)pyridin-2-yl)methanone] | 29 | 24 | 4900 |
| Cc1ccc(-c2ncccn2)c(C(=O)N2CCC[C@@H](Nc3nc4ccccc4o3)[C@@H]2C)n1 [Example 81, ((2S,3R)-3-(benzo[d]oxazol-2-ylamino)-2-methylpiperidin-1-yl)(6-methyl-3-(pyrimidin-2-yl)pyridin-2-yl)methanone] | 14 | 23 | 100 |
| COc1ccc(C(=O)N2CCC[C@@H](Nc3cnc(C(F)(F)F)cn3)[C@@H]2C)c(-n2nccn2)c1 [Example 82, (4-methoxy-2-(2H-1,2,3-triazol-2-yl)phenyl)((2S,3R)-2-methyl-3-((5-(trifluoromethyl)pyrazin-2-yl)amino)piperidin-1-yl)methanone] | 53 | 58 | 6400 |
| Cc1cnc(C(=O)N2CCC[C@@H](Nc3cnc(C(F)(F)F)cn3)[C@@H]2C)c(-c2ncco2)c1 [Example 83, ((2S,3R)-2-methyl-3-((5-(trifluoromethyl)pyrazin-2-yl)amino)piperidin-1-yl)(5-methyl-3-(oxazol-2-yl)pyridin-2-yl)methanone] | 57 | 53 | 7000 |
| Cc1ccc(-c2ncccn2)c(C(=O)N2CCC[C@@H](Nc3cnc(C(F)(F)F)cn3)[C@@H]2C)n1 [Example 84, ((2S,3R)-2-methyl-3-((5-(trifluoromethyl)pyrazin-2-yl)amino)piperidin-1-yl)(6-methyl-3-(pyrimidin-2-yl)pyridin-2-yl)methanone] | 23 | 28 | 173 |
| C[C@H]1[C@H](Nc2cnc(C(F)(F)F)cn2)CCCN1C(=O)c1ccccc1-n1nccn1 [Example 85, (2-(2H-1,2,3-triazol-2-yl)phenyl)((2S,3R)-2-methyl-3-((5-(trifluoromethyl)pyrazin-2-yl)amino)piperidin-1-yl)methanone] | 8 | 10 | 210 |
| Cc1cnc(C(=O)N2CCC[C@@H](Nc3cnc(Cl)cn3)[C@@H]2C)c(-c2ncco2)c1 [Example 86, ((2S,3R)-3-((5-chloropyrazin-2-yl)amino)-2-methylpiperidin-1-yl)(5-methyl-3-(oxazol-2-yl)pyridin-2-yl)methanone] | 213 | 249 | > 10000 |
| Cc1cnc(C(=O)N2CCC[C@@H](Nc3nc4ccccc4o3)[C@@H]2C)c(-c2ncco2)c1 [Example 88, ((2S,3R)-3-(benzo[d]oxazol-2-ylamino)-2-methylpiperidin-1-yl)(5-methyl-3-(oxazol-2-yl)pyridin-2-yl)methanone] | 13 | 25 | 3300 |
| COc1ccc(-n2nccn2)c(C(=O)N2CCC[C@@H](Nc3ncc(C(F)(F)F)cn3)[C@@H]2C)c1 [Example 89, (5-methoxy-2-(2H-1,2,3-triazol-2-yl)phenyl)((2S,3R)-2-methyl-3-((5-(trifluoromethyl)pyrimidin-2-yl)amino)piperidin-1-yl)methanone] | 14 | 10 | 371 |
| C[C@H]1[C@H](Nc2cnc(C(F)(F)F)cn2)CCCN1C(=O)c1cc(F)ccc1-n1nccn1 [Example 90, (5-fluoro-2-(2H-1,2,3-triazol-2-yl)phenyl)((2S,3R)-2-methyl-3-((5-(trifluoromethyl)pyrazin-2-yl)amino)piperidin-1-yl)methanone] | 20 | 19 | 486 |
| Cc1ccc(C(=O)N2CCC[C@@H](Nc3ncc(Cl)cn3)[C@@H]2C)c(-n2nccn2)c1 [Example 91, ((2S,3R)-3-((5-chloropyrimidin-2-yl)amino)-2-methylpiperidin-1-yl)(4-methyl-2-(2H-1,2,3-triazol-2-yl)phenyl)methanone] | 32 | 48 | 2100 |
| Cc1cnc(C(=O)N2CCC[C@@H](Nc3ccc(Br)cn3)[C@@H]2C)c(-n2nccn2)c1 [Example 92, ((2S,3R)-3-((5-bromopyridin-2-yl)amino)-2-methylpiperidin-1-yl)(5-methyl-3-(2H-1,2,3-triazol-2-yl)pyridin-2-yl)methanone] | 19 | 18 | 4200 |
| Cc1ccc(C(=O)N2CCC[C@@H](Nc3ccc(C(F)(F)F)cn3)[C@@H]2C)c(-n2ccnn2)n1 [Example 93, (6-methyl-2-(1H-1,2,3-triazol-1-yl)pyridin-3-yl)((2S,3R)-2-methyl-3-((5-(trifluoromethyl)pyridin-2-yl)amino)piperidin-1-yl)methanone] | 52 | 38 | 2700 |
| Cc1cnc(C(=O)N2CCC[C@@H](Nc3ncc(C(F)(F)F)cn3)[C@@H]2C)c(-n2nccn2)c1 [Example 94, ((2S,3R)-2-methyl-3-((5-(trifluoromethyl)pyrimidin-2-yl)amino)piperidin-1-yl)(5-methyl-3-(2H-1,2,3-triazol-2-yl)pyridin-2-yl)methanone] | 38 | 25 | > 10000 |
| COc1ccc(C(=O)N2CCC[C@@H](Nc3ncc(C(F)(F)F)cn3)[C@@H]2C)c(-n2nccn2)c1 [Example 95, (4-methoxy-2-(2H-1,2,3-triazol-2-yl)phenyl)((2S,3R)-2-methyl-3-((5-(trifluoromethyl)pyrimidin-2-yl)amino)piperidin-1-yl)methanone] | 81 | 103 | > 10000 |
| Cc1ccc(C(=O)N2CCC[C@@H](Nc3cnc(C(F)(F)F)cn3)[C@@H]2C)c(-n2ccnn2)n1 [Example 96, (6-methyl-2-(1H-1,2,3-triazol-1-yl)pyridin-3-yl)((2S,3R)-2-methyl-3-((5-(trifluoromethyl)pyrazin-2-yl)amino)piperidin-1-yl)methanone] | 81 | 47 | 3900 |
| COc1ccc(C(=O)N2CCC[C@@H](Nc3ccc(C(F)(F)F)cn3)[C@@H]2C)c(-n2nccn2)c1 [Example 97, (4-methoxy-2-(2H-1,2,3-triazol-2-yl)phenyl)((2S,3R)-2-methyl-3-((5-(trifluoromethyl)pyridin-2-yl)amino)piperidin-1-yl)methanone] | 44 | 32 | 6100 |

Source: patent publication US9115117B2, “Substituted piperidine compounds and their use as orexin receptor modulators” (JANSSEN PHARMACEUTICA NV, priority 2013, dated 2015)
